This is an account of results in patent US11873298B2, “Compounds and uses thereof” (JANSSEN PHARMACEUTICA NV, priority 2017, dated 2024).

One assay addresses T1, Ole1 (Saccharomyces cerevisiae, UniProt P21147).
T1 construct: expressed in transfected cells; host or cells: S. cerevisiae ole1Δ strain (W303 pdr1Δ pdr3Δ background), plasmid pRS316 with TDH3 promoter and CYC1 terminator
T1 sequence (P21147 1-510): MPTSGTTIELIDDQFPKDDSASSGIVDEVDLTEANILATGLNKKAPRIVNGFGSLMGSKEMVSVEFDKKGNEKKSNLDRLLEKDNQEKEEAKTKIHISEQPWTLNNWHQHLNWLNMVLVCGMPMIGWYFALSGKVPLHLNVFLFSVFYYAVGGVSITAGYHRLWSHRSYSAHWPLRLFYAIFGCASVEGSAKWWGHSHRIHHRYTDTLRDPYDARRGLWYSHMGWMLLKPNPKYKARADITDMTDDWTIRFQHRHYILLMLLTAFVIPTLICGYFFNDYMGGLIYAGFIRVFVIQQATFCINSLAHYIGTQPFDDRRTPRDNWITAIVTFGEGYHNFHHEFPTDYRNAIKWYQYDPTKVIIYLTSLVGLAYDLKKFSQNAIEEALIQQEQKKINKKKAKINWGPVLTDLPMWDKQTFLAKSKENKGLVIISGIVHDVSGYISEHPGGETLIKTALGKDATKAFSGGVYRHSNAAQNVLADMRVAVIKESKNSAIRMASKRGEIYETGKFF
Put plainly: Growth inhibition of yeast strain expressing Ole1 as sole desaturase. It is filed as cell-based. As to conditions: for IC50 / OLE1 % Max Inhibition: yeast strain expressing Ole1 as sole desaturase. In a few lines: (§1)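 Yeast ole1Δ strain (W303 pdr1Δ pdr3Δ background) carrying plasmid-borne Ole1, SCD1 or SCD5 as sole desaturase was grown in uracil-lacking media, pre-cultured in raffinose for 6 h, then seeded in galactose medium with compound in DMSO. Growth was read as OD600 after 30° C. incubation: 24 h for Ole1, 40 h for SCD1/SCD5.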

Assay [1] deals with yeast strains expressing the human α-synuclein. Put plainly: Yeast α-synuclein toxicity rescue assay (OD600 growth). To be noted: 40 h; for EC50: read-out: α-Syn EC50; for Emax: read-out: α-Syn Emax.
A further assay concerns the target T2, SCD1 (Homo sapiens, UniProt O00767).
T2 construct: host or cells: S. cerevisiae ole1Δ strain (W303 pdr1Δ pdr3Δ background), plasmid pRS316 with TDH3 promoter and CYC1 terminator
T2 sequence (O00767 1-359): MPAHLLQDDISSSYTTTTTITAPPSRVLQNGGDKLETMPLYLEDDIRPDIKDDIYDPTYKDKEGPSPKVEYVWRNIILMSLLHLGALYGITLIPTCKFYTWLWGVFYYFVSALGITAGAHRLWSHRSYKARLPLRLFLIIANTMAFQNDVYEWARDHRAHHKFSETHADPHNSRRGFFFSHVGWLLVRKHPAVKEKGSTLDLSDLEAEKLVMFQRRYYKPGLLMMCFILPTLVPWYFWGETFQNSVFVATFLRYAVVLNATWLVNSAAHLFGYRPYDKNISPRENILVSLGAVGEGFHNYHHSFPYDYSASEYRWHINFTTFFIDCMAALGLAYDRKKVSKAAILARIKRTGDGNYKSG
Put plainly: Growth inhibition of humanized yeast strain expressing SCD1 as sole desaturase. It is filed as cell-based. As to conditions: for IC50 / SCD1 % Max Inhibition: humanized yeast strain expressing SCD1. Put shortly:
as §1

Another assay deals with T3, SCD5 (Homo sapiens, UniProt Q86SK9).
T3 construct: host or cells: S. cerevisiae ole1Δ strain (W303 pdr1Δ pdr3Δ background), plasmid pRS316 with TDH3 promoter and CYC1 terminator
T3 sequence (Q86SK9 1-330): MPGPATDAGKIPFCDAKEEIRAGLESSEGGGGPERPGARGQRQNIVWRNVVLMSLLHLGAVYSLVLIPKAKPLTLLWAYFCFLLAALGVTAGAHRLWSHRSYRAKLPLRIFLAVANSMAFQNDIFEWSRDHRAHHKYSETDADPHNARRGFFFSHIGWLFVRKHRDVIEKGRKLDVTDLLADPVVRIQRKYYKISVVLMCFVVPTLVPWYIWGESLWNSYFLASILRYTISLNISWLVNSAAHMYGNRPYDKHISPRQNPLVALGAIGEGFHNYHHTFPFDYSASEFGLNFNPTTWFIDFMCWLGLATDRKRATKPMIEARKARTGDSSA
Put plainly: Growth inhibition of humanized yeast strain expressing SCD5 as sole desaturase. It is filed as cell-based. As to conditions: for IC50 / SCD5 % Max Inhibition: humanized yeast strain expressing SCD5. In a few lines:
as §1

With `Cc1nn(C)c2cc(-c3noc(C4CCN(C(=O)C5CC(=O)N(c6ccccc6)C5)CC4)n3)cnc12` (stereo not shown) [Compound 138], on Ole1, the IC50 (in general, the concentration that gives 50% inhibition) was over 45 µM and the “OLE1 % Max Inhibition” value is 3.94%. Moreover, in assay [1], the EC50 (usually the concentration that produces a half-maximal response) was 1.28 µM and the Emax turned out to be 353%. For the same compound, at SCD1, the IC50 was 37.3 µM and the “SCD1 % Max Inhibition” value is on record as 54.49%. At SCD5, the IC50 was over 45 µM and the “SCD5 % Max Inhibition” value is on record as 4.57%.
`CCOc1cnc(-c2noc(C3CCN(C(=O)CN4Cc5ccccc5C4=O)CC3)n2)cc1OC` [Compound 147]: on Ole1, the IC50 was over 45 µM and the “OLE1 % Max Inhibition” value stood at 9.34%. In addition, in assay [1], the EC50 amounted to 17.9 µM and the Emax was 453%. In addition, on SCD1, the IC50 is over 45 µM and the “SCD1 % Max Inhibition” value worked out at 74.14%. At SCD5, the 50% inhibitory concentration (IC50) was over 45 µM and the “SCD5 % Max Inhibition” value is 86.70%.
With `CCOc1ccc(-c2noc(N3CCC(C(=O)N4CCOC(c5ccccc5)C4)CC3)n2)cc1OC` (stereo not shown) [Compound 112], on Ole1, the concentration for half-maximal inhibition (IC50) is over 45 µM and the “OLE1 % Max Inhibition” value was 3.16%. Also, in assay [1], the EC50 came to 0.32 µM and the Emax was 258%. At SCD1, the IC50 is over 45 µM and the “SCD1 % Max Inhibition” value came out at 66.76%. For the same compound, at SCD5, the IC50 was over 45 µM and the “SCD5 % Max Inhibition” value amounted to 21.21%.
`Cc1nn(C)c2ccc(-c3noc(C4CCN(C(=O)CNC(=O)c5ccccc5)CC4)n3)cc12` [Compound 95]: the IC50 at Ole1 is over 45 µM; at SCD1, 39.2 µM; on SCD5, over 45 µM. Moreover, the EC50 in assay [1] amounted to 0.091 µM. Further, the Emax in assay [1] is 827%.
In the case of `Cc1n[nH]c2cc(-c3noc(C4CCN(C(=O)CNC(=O)c5ccccc5)CC4)n3)ccc12` [compound 93], the IC50 on Ole1, against SCD1 and against SCD5 was over 45 µM throughout. The EC50 in assay [1] worked out at 1.8 µM. In addition, the Emax in assay [1] was 626%.
For the compound `CCOc1ccc(-c2noc(C3CCN(C(=O)C4CC(=O)N(c5ccccc5)C4)CC3)n2)nc1OC` (stereo not shown) [Compound 108], at Ole1, the IC50 is over 45 µM and the “OLE1 % Max Inhibition” value is listed as 72.04%. Besides, in assay [1], the EC50 is 11.1 µM and the Emax came out at 316%. Moreover, on SCD1, the IC50 is over 45 µM and the “SCD1 % Max Inhibition” value amounted to 72.79%. Moreover, at SCD5, the IC50 is over 45 µM and the “SCD5 % Max Inhibition” value came out at 64.66%.
As to `Cc1ccc(-c2noc(C3CCN(C(=O)C4CC(=O)N(c5ccc(C)c(C)c5)C4)CC3)n2)cc1` (stereo not shown) [compound 2], the IC50 against Ole1, against SCD1 and at SCD5 was over 45 µM throughout. Also, the half-maximal effective concentration (EC50) in assay [1] was found to be 8.57 µM. In addition, the Emax in assay [1] amounted to 80%.
Consider `CCOc1ncc(-c2noc(C3CCN(C(=O)C4CC(=O)N(c5ccccc5)C4)CC3)n2)cc1OC` (stereo not shown) [Compound 130], for which, at Ole1, the IC50 is over 45 µM and the “OLE1 % Max Inhibition” value turned out to be 2.75%. Also, in assay [1], the EC50 worked out at 1.44 µM and the Emax was 328%. Moreover, on SCD1, the IC50 was over 45 µM and the “SCD1 % Max Inhibition” value is on record as 97.82%. On SCD5, the IC50 is over 45 µM and the “SCD5 % Max Inhibition” value is reported as 99.82%.
As to `COc1ccc(-c2noc(C3CCN(C(=O)CNC(=O)N4CCCCC4)CC3)n2)cc1OC` [Compound 143], at Ole1, the half-maximal inhibitory concentration (IC50) is over 45 µM and the “OLE1 % Max Inhibition” value was determined as 95.01%. Also, in assay [1], the EC50 came to 16.9 µM and the Emax was determined as 73%. On SCD1, the IC50 was over 45 µM and the “SCD1 % Max Inhibition” value worked out at 79.38%. Further, at SCD5, the IC50 was over 45 µM and the “SCD5 % Max Inhibition” value is 96.06%.
For `Cn1c(=O)n(C)c2cc(-c3noc(C4CCN(C(=O)C5CC(=O)N(c6ccccc6)C5)CC4)n3)ccc21` (stereo not shown) [Compound 123], on Ole1, the IC50 is over 45 µM and the “OLE1 % Max Inhibition” value amounted to 3.12%. Further, in assay [1], the EC50 came to 0.069 µM and the Emax worked out at 343%. In addition, at SCD1, the IC50 was over 45 µM and the “SCD1 % Max Inhibition” value stood at 73.59%. Moreover, at SCD5, the IC50 was over 45 µM and the “SCD5 % Max Inhibition” value stood at 9.69%.
As for `Cn1c(=O)[nH]c2ccc(-c3noc(C4CCN(C(=O)CN5Cc6ccccc6C5=O)CC4)n3)cc21` [Compound 133], at Ole1, the concentration for half-maximal inhibition (IC50) was over 45 µM and the “OLE1 % Max Inhibition” value worked out at 26.72%. In assay [1], the EC50 is 6.38 µM and the Emax is 281%. For the same compound, at SCD1, half-maximal inhibition (IC50) required 37.3 µM and the “SCD1 % Max Inhibition” value came out at 61.21%. Also, at SCD5, the IC50 is over 45 µM and the “SCD5 % Max Inhibition” value is listed as 74.75%.
As to `Cc1nn(C)c2cc(-c3noc(C4CCN(C(=O)C5CC(=O)N(c6ccccc6)C5)CC4)n3)ncc12` (stereo not shown) [Compound 120], at Ole1, the IC50 was over 45 µM and the “OLE1 % Max Inhibition” value is listed as 119.08%. For the same compound, in assay [1], the EC50 stood at 19.5 µM and the Emax is 139%. Also, on SCD1, the IC50 was over 45 µM and the “SCD1 % Max Inhibition” value is given as 99.80%. Also, at SCD5, the IC50 is over 45 µM and the “SCD5 % Max Inhibition” value is reported as 96.39%.
In the case of `CCOc1ccc(-c2noc(C3CCN(C(=O)CNC(=O)c4ccccc4)CC3)n2)cc1Cl` [compound 87], in assay [1], the EC50 amounted to 1.93 µM and the Emax was 579%.
In the case of `CC(C)n1ncc2cc(-c3noc(C4CCN(C(=O)CNC(=O)c5ccccc5)CC4)n3)ccc21` [Compound 228], at Ole1, the IC50 was over 45 µM and the “OLE1 % Max Inhibition” value amounted to 21.30%. In addition, the “SCD1 % Max Inhibition” value on SCD1 was 51.80%. Further, at SCD5, the half-maximal inhibitory concentration (IC50) was over 45 µM and the “SCD5 % Max Inhibition” value is 2.72%.
With `Cc1nnc(-c2ccc(N3CCC(Oc4cc(F)ccc4Cl)CC3)nn2)o1` [CAY10566, reference compound], the “growth of yeast expressing OLE1 in presence of inhibitor” value at Ole1 (FIG. 6) is “resistant”. Also, the “half-maximal inhibitory concentration (IC50)” value is reported as “low nanomolar” at SCD1 (SCD1 humanized strain, FIG. 6) and “low nanomolar” at SCD5 (SCD5 humanized strain, FIG. 6).
For the compound `CC(C)n1cc2cc(-c3noc(C4CCN(C(=O)CNC(=O)c5ccccc5)CC4)n3)ccc2n1` [Compound 229], at Ole1, the half-maximal inhibitory concentration (IC50) is over 45 µM and the “OLE1 % Max Inhibition” value turned out to be 89.56%. Besides, on SCD1, the IC50 was over 45 µM and the “SCD1 % Max Inhibition” value stood at 66.51%. Also, at SCD5, the IC50 was over 45 µM and the “SCD5 % Max Inhibition” value turned out to be 71.18%.
As for `COc1ccc(-c2noc(C3CCN(C(=O)CN)CC3)n2)cc1OC` [Compound 75], the concentration for half-maximal inhibition (IC50) was over 45 µM on Ole1, over 45 µM against SCD1 and 30 µM at SCD5.
On to `Cn1c(=O)n(C)c2cc(-c3noc(C4CCN(C(=O)CNC(=O)c5ccncc5)CC4)n3)ccc21` [Compound 238], for which, on Ole1, the IC50 is over 45 µM and the “OLE1 % Max Inhibition” value was 4.93%. Besides, at SCD1, the IC50 is over 45 µM and the “SCD1 % Max Inhibition” value came to 70.06%. On SCD5, the IC50 worked out at 30 µM and the “SCD5 % Max Inhibition” value was 69.63%.
`Cn1c(=O)[nH]c2ccc(-c3noc(C4CCN(C(=O)CNC(=O)c5ccccc5)CC4)n3)cc21` [Compound 162]: at Ole1, the IC50 was over 45 µM and the “OLE1 % Max Inhibition” value is listed as 100.35%. For the same compound, at SCD1, the IC50 was over 45 µM and the “SCD1 % Max Inhibition” value stood at 84.54%. Further, on SCD5, the IC50 was over 45 µM and the “SCD5 % Max Inhibition” value turned out to be 76.89%.
